Experimental data reported in ChEMBL document CHEMBL1122214, “omicron-Quinone formation in the biochemical oxidation of the antitumor drug N2-methyl-9-hydroxyellipticinium acetate” (J Med Chem, 1983).

Columns and labels:
L1210 = experiment: In vitro antitumor activity against murine leukemia L1210 after 48 hour; type: functional; conditions: Mus musculus, L1210, 48 h; read-out: ID50 (the source's name)
[1] = Compound was evaluated for its pKa (weak acid) value; type: physicochemical

| Compound | IC50 (L1210) [µM] | pKa [1] |
| --- | --- | --- |
| Cc1c2c(c(C)c3c[n+](C)ccc13)C1=CC(=O)C=CC1=N2 | 0.05 |  |
| Cc1c2cc[n+](C)cc2c(C)c2c3c([nH]c12)C=CC(=O)C3=O | 9.6 | 5.1 |
| COC1=CC(=O)C(=O)c2c1nc1c(C)c3ccn(C)cc3c(C)c21 | 5.8 |  |
